Tested on: not listed separately
Test: Acute toxicity (LD50) on mice
Conditions: mouse, in vivo, po
Compound `c1cc(N2CCOCC2)nnc1NN=C1CCCCC1` [Example 10, Cyclohexylidene-3-morpholino-6-pyridazinylhydrazone] has an LD50 of under 200 mg/kg.
Work on `CC(CC(=O)OC(C)(C)C)=NNc1ccc(C(N)=O)nn1` [Example 56, 3-(tert.-Butoxycarbonyl)-2-propylidene-(3-carbamoyl-6-pyridazinyl) hydrazine] yielded an LD50 of over 200 mg/kg.

Target: T1, tyrosine-hydroxylase (Rattus norvegicus, UniProt P04177)
T1 construct: on rat adrenal homogenate; from tissue; host or cells: rat adrenal homogenate
T1 sequence (P04177 whole entry): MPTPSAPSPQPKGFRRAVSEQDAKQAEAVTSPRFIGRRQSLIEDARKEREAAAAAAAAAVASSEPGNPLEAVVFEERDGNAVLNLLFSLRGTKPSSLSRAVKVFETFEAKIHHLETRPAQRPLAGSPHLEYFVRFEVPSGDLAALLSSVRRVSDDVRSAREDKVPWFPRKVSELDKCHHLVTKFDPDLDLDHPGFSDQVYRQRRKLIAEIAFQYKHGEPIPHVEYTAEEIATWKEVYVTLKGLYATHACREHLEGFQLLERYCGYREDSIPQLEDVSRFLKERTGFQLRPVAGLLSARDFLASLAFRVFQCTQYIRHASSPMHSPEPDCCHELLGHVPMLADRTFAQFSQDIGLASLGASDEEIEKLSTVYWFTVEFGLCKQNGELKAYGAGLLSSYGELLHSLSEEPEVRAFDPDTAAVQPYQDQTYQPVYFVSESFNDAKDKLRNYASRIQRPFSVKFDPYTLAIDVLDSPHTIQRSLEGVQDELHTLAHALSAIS
Test: In vitro tyrosine-hydroxylase inhibiting activity (TH) on rat adrenal homogenate
Format: biochemical
Conditions: 10^-4 mole/liter; read-out: Enzyme inhibiting activity, TH
Experimental: In vitro tyrosine-hydroxylase inhibiting activity (TH inhibiting activity) of the new compounds according to the invention was tested by the method of Nagatsu [Anal. Biochem., 9, 122 (1964)] on rat adrenal homogenate. Radioactive tyrosine was purified by the method elaborated by Ikeda [J. Biol. Chem., 241, 4452 (1966)]. TH activity of the rat adrenal homogenate amounted to […] nmoles/mg protein/60 min.
(§1) Inhibiting effect of several compounds encompassed by the formula I in comparison with some known compounds is listed in the following Table I.
Work on `O=C(O)C1CCCCC1=NNc1ccc(Cl)nn1` (centres unmarked) [Example 18, 2-Carboxy-1-cyclohexylidene-3-chloro-6-pyridazinylhydrazone] yielded an inhibition at 100 µM of 100%.
For `CCCCc1ccc(C(=O)O)nc1` [Fusaric acid, reference compound], the inhibition at 100 µM was 0%.
For `CCOC(=O)CC(C)=NNc1cccnn1` [Example 22, 3-(Ethoxycarbonyl)-2-propylidene-(3-pyridazinyl)hydrazone], the inhibition at 100 µM was 100%.
`CC12CCC(CC1=NNc1cccnn1)C2(C)C` (centres unmarked) [Example 3, 1,7,7-Trimethy-2-bicyclo-[2,2,1]heptylidene-3-pyridazinylhydrazone] gave an inhibition at 100 µM of 100%.
`CC1CCCCC1=NNc1ccc(Cl)nn1` (centres unmarked) [Example 15, 2-Methyl-1-cyclohexylidene-3-chloro-6-pyridazinylhydrazone] showed an inhibition at 100 µM of 100%.
`c1cnnc(NN=C2CCCCC2)c1` [Example 12, Cyclohexylidene-3-pyridazinylhydrazone] gave an inhibition at 100 µM of 100%.
`CC(=NNc1cccnn1)c1ccccc1` [Example 13, 1-Phenyl-1-ethylidene-3-pyridazinylhydrazone] showed an inhibition at 100 µM of 95%.
`CC(N)(Cc1ccc(O)cc1)C(=O)O` (racemic) [D,L-α-methyl-4-hydroxy-phenyl-alanine, reference compound] showed an inhibition at 100 µM of 100%.

Same assay, conditions: 10^-5 mole/liter; read-out: Enzyme inhibiting activity, TH
Work on `O=C(O)C1CCCCC1=NNc1ccc(Cl)nn1` (centres unmarked) [Example 18, 2-Carboxy-1-cyclohexylidene-3-chloro-6-pyridazinylhydrazone] yielded an inhibition at 10 µM of 50%.
Compound `CCCCc1ccc(C(=O)O)nc1` [Fusaric acid, reference compound] has an inhibition at 10 µM of 0%.
Compound `CCOC(=O)CC(C)=NNc1cccnn1` [Example 22, 3-(Ethoxycarbonyl)-2-propylidene-(3-pyridazinyl)hydrazone] has an inhibition at 10 µM of 50%.
`CC12CCC(CC1=NNc1cccnn1)C2(C)C` (centres unmarked) [Example 3, 1,7,7-Trimethy-2-bicyclo-[2,2,1]heptylidene-3-pyridazinylhydrazone] gave an inhibition at 10 µM of 75%.
In the case of `CC1CCCCC1=NNc1ccc(Cl)nn1` (centres unmarked) [Example 15, 2-Methyl-1-cyclohexylidene-3-chloro-6-pyridazinylhydrazone], the inhibition at 10 µM is reported as 50%.
For `c1cnnc(NN=C2CCCCC2)c1` [Example 12, Cyclohexylidene-3-pyridazinylhydrazone], the inhibition at 10 µM was 85%.
In the case of `CC(=NNc1cccnn1)c1ccccc1` [Example 13, 1-Phenyl-1-ethylidene-3-pyridazinylhydrazone], the inhibition at 10 µM is reported as 40%.
`CC(N)(Cc1ccc(O)cc1)C(=O)O` (racemic) [D,L-α-methyl-4-hydroxy-phenyl-alanine, reference compound] showed an inhibition at 10 µM of 60%.

Target: T2, dopamine-β-hydroxylase (Bos taurus, UniProt P15101)
T2 construct: from tissue; host or cells: bovine adrenal (gland) preparations
T2 sequence (P15101 1-610): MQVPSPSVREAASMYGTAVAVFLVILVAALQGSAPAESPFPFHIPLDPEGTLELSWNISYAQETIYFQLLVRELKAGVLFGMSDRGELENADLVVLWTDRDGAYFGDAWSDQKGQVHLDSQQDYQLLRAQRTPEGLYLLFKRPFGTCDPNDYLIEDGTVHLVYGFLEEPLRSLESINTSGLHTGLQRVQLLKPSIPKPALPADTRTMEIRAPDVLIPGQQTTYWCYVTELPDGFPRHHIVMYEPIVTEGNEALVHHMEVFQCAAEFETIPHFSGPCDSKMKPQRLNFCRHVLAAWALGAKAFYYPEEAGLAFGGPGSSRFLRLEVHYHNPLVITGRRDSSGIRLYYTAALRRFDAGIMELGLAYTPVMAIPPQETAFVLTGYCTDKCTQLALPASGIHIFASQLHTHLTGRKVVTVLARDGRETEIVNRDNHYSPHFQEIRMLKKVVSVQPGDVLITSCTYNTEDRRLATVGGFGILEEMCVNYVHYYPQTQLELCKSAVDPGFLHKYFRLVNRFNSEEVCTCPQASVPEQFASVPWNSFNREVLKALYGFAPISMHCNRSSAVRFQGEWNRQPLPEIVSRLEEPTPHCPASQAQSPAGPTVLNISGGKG
Test: Dopamine-β-hydroxylase inhibiting activity (DBH) on bovine adrenal (gland) preparations
Format: biochemical
Conditions: 10^-4 mole/liter; read-out: Enzyme inhibiting activity, DBH
Experimental: Dopamine-β-hydroxylase inhibiting activity (DBH inhibiting activity) of the compounds according to the invention was tested on bovine adrenal (gland) preparations by a modified version of Nagatsu's method [B.B. Acta, 139 319 (1967)].
as §1
Work on `O=C(O)C1CCCCC1=NNc1ccc(Cl)nn1` (centres unmarked) [Example 18, 2-Carboxy-1-cyclohexylidene-3-chloro-6-pyridazinylhydrazone] yielded an inhibition at 100 µM of 88%.
`CCCCc1ccc(C(=O)O)nc1` [Fusaric acid, reference compound] gave an inhibition at 100 µM of 100%.
`CCOC(=O)CC(C)=NNc1cccnn1` [Example 22, 3-(Ethoxycarbonyl)-2-propylidene-(3-pyridazinyl)hydrazone] gave an inhibition at 100 µM of 100%.
`CC12CCC(CC1=NNc1cccnn1)C2(C)C` (centres unmarked) [Example 3, 1,7,7-Trimethy-2-bicyclo-[2,2,1]heptylidene-3-pyridazinylhydrazone] gave an inhibition at 100 µM of 80%.
Work on `CCOC(=O)CC(=NNc1ccc(Cl)nn1)c1cccnc1` [Example 37, 1-(Ethoxycarbonyl)-2-(3-pyridyl)-2-ethylidene-3-chloro-6-pyridazinylhydrazone] yielded an inhibition at 100 µM of 100%.
`COC(=O)CC(C)=NNc1ccc(Cl)nn1` [Example 24, 3-(Methoxycarbonyl)-2-propylidene-3-chloro-6-pyridazinylhydrazone] gave an inhibition at 100 µM of 100%.
With `CC1CCCCC1=NNc1ccc(Cl)nn1` (centres unmarked) [Example 15, 2-Methyl-1-cyclohexylidene-3-chloro-6-pyridazinylhydrazone] the inhibition at 100 µM was 88%.
Work on `c1cnnc(NN=C2CCCCC2)c1` [Example 12, Cyclohexylidene-3-pyridazinylhydrazone] yielded an inhibition at 100 µM of 84%.
In the case of `CCOC(=O)CC(=NNc1ccc(Cl)nn1)c1ccccc1` [Example 34, 1-(Ethoxycarbonyl)-2-phenyl-2-ethylidene-3-chloro-6-pyridazinylhydrazone], the inhibition at 100 µM is reported as 100%.
`CC(=NNc1cccnn1)c1ccccc1` [Example 13, 1-Phenyl-1-ethylidene-3-pyridazinylhydrazone] showed an inhibition at 100 µM of 90%.
`CC(N)(Cc1ccc(O)cc1)C(=O)O` (racemic) [D,L-α-methyl-4-hydroxy-phenyl-alanine, reference compound] showed an inhibition at 100 µM of 0%.

Same assay, conditions: 10^-5 mole/liter; read-out: Enzyme inhibiting activity, DBH
`O=C(O)C1CCCCC1=NNc1ccc(Cl)nn1` (centres unmarked) [Example 18, 2-Carboxy-1-cyclohexylidene-3-chloro-6-pyridazinylhydrazone] gave an inhibition at 10 µM of 32%.
For `CCCCc1ccc(C(=O)O)nc1` [Fusaric acid, reference compound], the inhibition at 10 µM was 100%.
Compound `CCOC(=O)CC(C)=NNc1cccnn1` [Example 22, 3-(Ethoxycarbonyl)-2-propylidene-(3-pyridazinyl)hydrazone] has an inhibition at 10 µM of 56%.
With `CC12CCC(CC1=NNc1cccnn1)C2(C)C` (centres unmarked) [Example 3, 1,7,7-Trimethy-2-bicyclo-[2,2,1]heptylidene-3-pyridazinylhydrazone] the inhibition at 10 µM was 0%.
For `CCOC(=O)CC(=NNc1ccc(Cl)nn1)c1cccnc1` [Example 37, 1-(Ethoxycarbonyl)-2-(3-pyridyl)-2-ethylidene-3-chloro-6-pyridazinylhydrazone], the inhibition at 10 µM was 41%.
Work on `COC(=O)CC(C)=NNc1ccc(Cl)nn1` [Example 24, 3-(Methoxycarbonyl)-2-propylidene-3-chloro-6-pyridazinylhydrazone] yielded an inhibition at 10 µM of 50%.
With `CC1CCCCC1=NNc1ccc(Cl)nn1` (centres unmarked) [Example 15, 2-Methyl-1-cyclohexylidene-3-chloro-6-pyridazinylhydrazone] the inhibition at 10 µM was 32%.
`c1cnnc(NN=C2CCCCC2)c1` [Example 12, Cyclohexylidene-3-pyridazinylhydrazone] showed an inhibition at 10 µM of 10%.
`CCOC(=O)CC(=NNc1ccc(Cl)nn1)c1ccccc1` [Example 34, 1-(Ethoxycarbonyl)-2-phenyl-2-ethylidene-3-chloro-6-pyridazinylhydrazone] showed an inhibition at 10 µM of 40%.
In the case of `CC(=NNc1cccnn1)c1ccccc1` [Example 13, 1-Phenyl-1-ethylidene-3-pyridazinylhydrazone], the inhibition at 10 µM is reported as 10%.
Compound `CC(N)(Cc1ccc(O)cc1)C(=O)O` (racemic) [D,L-α-methyl-4-hydroxy-phenyl-alanine, reference compound] has an inhibition at 10 µM of 0%.

Tested on: spontaneous hypertensive rats (Wistar-Okamoto rats)
Test: Blood pressure lowering activity, systolic blood pressure of waking spontaneous hypertensive rats, oral
Format: in vivo, rat
Conditions: Rattus norvegicus; 4 hours, + = 20 mg/kg, oral; read-out: Reduction in blood pressure
Experimental: Blood pressure lowering activity of the new compounds according to the invention was tested on spontaneous hypertensive rats (Wistar-Okamoto rats) following the method described in Arzn. Forsch., 6, 222 (1956). Systolic blood pressure of waking animals was measured in arteria caudalis 4, 24, 48 and 72 hours after the oral administration of the test compounds.
Compound `CC(CC(=O)OC(C)(C)C)=NNc1ccc(C(N)=O)nn1` [Example 56, 3-(tert.-Butoxycarbonyl)-2-propylidene-(3-carbamoyl-6-pyridazinyl) hydrazine] has a change in vivo at 20 mg/kg of -20%.

Same assay, conditions: Rattus norvegicus; 4 hours, oral; read-out: Reduction in blood pressure
With `c1cc(N2CCOCC2)nnc1NN=C1CCCCC1` [Example 10, Cyclohexylidene-3-morpholino-6-pyridazinylhydrazone] the change in vivo at 2.5 mg/kg was -41%.

Same assay, conditions: Rattus norvegicus; 24 hours, + = 20 mg/kg, oral; read-out: Reduction in blood pressure
With `CC(CC(=O)OC(C)(C)C)=NNc1ccc(C(N)=O)nn1` [Example 56, 3-(tert.-Butoxycarbonyl)-2-propylidene-(3-carbamoyl-6-pyridazinyl) hydrazine] the change in vivo at 20 mg/kg was 0%.

Same assay, conditions: Rattus norvegicus; 24 hours, oral; read-out: Reduction in blood pressure
Compound `c1cc(N2CCOCC2)nnc1NN=C1CCCCC1` [Example 10, Cyclohexylidene-3-morpholino-6-pyridazinylhydrazone] has a change in vivo at 2.5 mg/kg of -26%.

Same assay, conditions: ≥-15%
For `c1cc(N2CCOCC2)nnc1NN=C1CCCCC1` [Example 10, Cyclohexylidene-3-morpholino-6-pyridazinylhydrazone], the “significant blood pressure lowering activity” value was at least -15%.
For `CC(CC(=O)OC(C)(C)C)=NNc1ccc(C(N)=O)nn1` [Example 56, 3-(tert.-Butoxycarbonyl)-2-propylidene-(3-carbamoyl-6-pyridazinyl) hydrazine], the “significant blood pressure lowering activity” value was at least -15%.
For `CCOC(=O)CC(CC)=NNc1ccc(Cl)nn1` [Example 27, 1-(Ethoxycarbonyl)-2-butylidene-3-chloro-6-pyridazinylhydrazone], the “significant blood pressure lowering activity” value was at least -15%.

From patent publication US4259328A, “Morpholino pyridazinylhydrazones” (Richter Gedeon Vegyeszeti Gyar Rt, priority 1977, dated 1981)
